Measurements as given in US5854252A, “Dihalotriazolopyrimidine derivatives” (Shell Internationale Research Maatschappij B.V., priority 1993, dated 1998).
≈ marks a conversion by molar mass, not a printed value.

What was measured:
[1] = system: Plasmopara viticola; experiment: Antisporulant activity against vine downy mildew (PVA), Example 53(a); format: in vivo; settings: antisporulant foliar spray, 1000 ppm
Method: The test is a direct antisporulant one using a foliar spray. The lower surface of leaves of whole vine plants (cv Cabernet Sauvignon) are inoculated by spraying with an aqueous suspension containing 2.5×10^4 zoosporangia/ml two days prior to treatment with the test compound. The inoculated plants are kept for 24 hours in a high humidity compartment, then 24 hours at glasshouse ambient temperature and humidity. Infected leaves are sprayed on their lower surfaces with a solution of active material in 1:1 water/acetone containing 0.04% "TWEEN 20" (Trade Mark; a polyoxyethylene sorbitan ester surfactant). Plants are treated using an automated sprayline with an atomising nozzle. The concentration of the compound is 1000 ppm, and the spray volume is 700 l/ha. After spraying, the plants are returned to normal glasshouse conditions for 96 hours and are then transferred to the high humidity cabinet for 24 hours to induce sporulation, prior to assessment. Assessment is based on the percentage of the leaf area covered by sporulation compared with that on control leaves. The extent of disease control in all the above tests is expressed as a rating compared with either an untreated control or a diluent-sprayed-control, according to the criteria: […]

[2] = system: Pseudocercosporella herpotrichoides; experiment: Activity against wheat eyespot in-vitro (PHI), Example 53(j); format: cell-based; settings: 50 ppm, 12 days at 20° C.
Method: This test measures the in vitro activity of compounds against the fungus causing wheat eyespot. The test compound is dissolved or suspended in acetone and is added into 4 ml aliquots of half strength Potato Dextrose Broth dispensed in 25-compartment petri dishes to give a final concentration of 50 ppm compound and 2.5% acetone. Each compartment is inoculated with a 6 mm diameter plug of agar/mycelium taken from a 14 day old culture of P. herpotrichoides. Plates are incubated at 20° C. for 12 days until the assessment of mycelial growth. The extent of disease control in all the above tests is expressed as a rating compared with either an untreated control or a diluent-sprayed-control, according to the criteria: […]

[3] = system: Pyricularia oryzae; format: in vivo; settings: rice, therapeutic foliar spray, 1000 ppm
[4] = system: Puccinia arachidis; experiment: Field pot test with Puccinia arachidis on peanuts; format: in vivo; settings: topical, 456 h, 500 μg/ml spray, 1000 l/ha, 19 days after treatment, Abbott formula, read-out: % efficacy Puccinia arachidis
Method: 15 seeds of peanuts were sown in pots filled with a soil substrate. When the plants have developed 4 true leaves the fungicides and the test compounds were applied using a hand sprayer. The test compounds were applied at a concentration of 500 μg/ml in a […] containing 10% acetone and 0.05% Triton X 155 in water. The total amount of […] corresponded to 1000 l/ha. Six replicates per treatment were used. 2 Days after treatment the pots were exposed to peanut plants in the field on which the fungus, Puccinia arachidis, had formed sporulating pustules on the leaves. The assessment was carried out 19 days after treatment by estimating the percentage of infected leaf area. The % efficacy was calculated using the Abbott formula.

[5] = system: Cercospora arachidicola; experiment: Field pot test with Cercospora arachidicola on peanuts; format: in vivo; settings: Mycosphaerella arachidis, topical, 360 h, 500 μg/ml spray, 1000 l/ha, 15 days after treatment, Abbott formula, read-out: % efficacy Cercospora arachidicola
Method: 15 Seeds of peanuts were sown in pots filled with a soil substrate. When the plants have developed 4 true leaves (approx. 12-14 days after seeding) the fungicides and the test compounds were applied using a hand sprayer. The test compounds were applied at a concentration of 500 μg/ml in a […] containing 10% acetone and 0.05% Triton X 155 in water. The total amount of […] corresponded to 1000 l/ha. Six replicates (pots) per treatment were used. 2 days after treatment the pots were exposed to peanut plants in the field on which the fungus, Cercospora arachidicola, had formed sporulating lesions. The assessment was carried out 15 days after treatment by estimating the percentage of infected leaf area. The % efficacy was calculated using the Abbott formula.

[6] = system: Erysiphe graminis f.sp. hordei; experiment: Activity against barley powdery mildew (EG), Example 53(h); format: in vivo; settings: therapeutic foliar spray, 1000 ppm
Method: The test is a direct therapeutic one, using a foliar spray. Leaves of barley seedlings, (cv. Golden Promise) are inoculated by dusting with mildew conidia one day prior to treatment with the test compound. The inoculated plants are kept overnight at glasshouse ambient temperature and humidity prior to treatment. The plants are sprayed with the test compound at a dosage of 1000 ppm using an automated sprayline as described under (a). After drying, plants are returned to a compartment at 20°-25 ° C. and moderate humidity for up to 7 days, followed by assessment. Assessment is based on the percentage of leaf area covered by sporulation compared with that on leaves of control plants. The extent of disease control in all the above tests is expressed as a rating compared with either an untreated control or a diluent-sprayed-control, according to the criteria: […]

[7] = system: Pseudocercosporella herpotrichoides; experiment: MIC by serial dilution, Example 55, Pseudocercosporella herpotrichoides; format: cell-based; settings: Oculimacula yallundae; microtitre plates, 20° C., 6-8 days
Method: (§1) The MIC (Minimum Inhibition Concentration)-values were determined by serial dilution tests using 48-well microtitre plates. The dilution of the test compounds in the nutrient solution and the distribution to the wells were carried out by a TECAN RSP 5000 robotic sample processor.
(§2) For preparation of the nutrient solution, V8 juice (Trade Mark) was neutralised with calcium carbonate and centrifuged. The supernatant was diluted with distilled water (1:5) to the final concentration.
(§3) The fungi (Alternaria solani, Botrytis cinerea, Pseudocercosporella herpotrichoides, Micronectriella nivalis, Gaeumannomyces graminis) were added into the wells as a droplet of spore suspension. The microtitre plates were then incubated at 20° C. for 6-8 days. The MIC-value, which was defined to be the lowest concentration in the dilution series without mycelial growth, was determined by visual inspection of the plates.

[8] = system: Micronectriella nivalis; experiment: MIC by serial dilution, Example 55, Micronectriella nivalis; format: cell-based; settings: microtitre plates, 20° C., 6-8 days
Method: as §1, §2, §3

[9] = system: Gaeumannomyces graminis; experiment: MIC by serial dilution, Example 55, Gaeumannomyces graminis; format: cell-based; settings: microtitre plates, 20° C., 6-8 days
Method: as §1, §2, §3

[10] = system: Plasmopara viticola; experiment: Antisporulant activity against vine downy mildew (PVA), Example 54(a); format: in vivo; settings: antisporulant foliar spray, 600 ppm
Method: The test is a direct antisporulant one using a foliar spray. The lower surface of leaves of vine plants (cv. Cabernet Sauvignon), approximately 8 cm high, are inoculated with an aqueous suspension containing 5×10^4 zoosporangia/ml. The inoculated plants are kept for 24 hours at 21° C. in a high humidity cabinet, then for 24 hours in a glasshouse at 20° C. and 40% relative humidity. Infected leaves are sprayed on their lower surfaces with a solution of the test compound in 1:1 water/acetone containing 0.04% "TWEEN 20" (Trade Mark; a polyoxyethylene sorbitan ester surfactant). Plants are sprayed using a track sprayer equipped with 2 air-atomising nozzles. The concentration of the compound is 600 ppm and the spray volume is 750 l/ha. After drying, the plants are returned to the glasshouse at 20° C. and 40% relative humidity for 96 hours and are then transferred to the high humidity cabinet for 24 hours to induce sporulation. Assessment is based on the percentage of the leaf area covered by sporulation compared with that on control leaves. The extent of disease control in all the above tests is expressed as a rating compared with either an untreated control or a diluent-sprayed-control, according to the criteria: […]

[11] = system: Leptosphaeria nodorum; experiment: Activity against wheat leafspot (LN), Example 54(e); format: in vivo; settings: therapeutic foliar spray as under (a) (600 ppm)
Method: The test is a direct therapeutic one using a foliar spray. Wheat seedlings (cv Norman), at the single leaf stage, are inoculated with an aqueous suspension containing 1.5×10^6 conidia/ml. The inoculated plants are kept for 24 hours at 20° C. in a high humidity cabinet, followed by spraying with the test compound as described under (a). After drying, the plants are kept for 6-8 days in the glasshouse at 22° C. and 70% relative humidity. Assessment is based on the density of lesions per leaf compared with that on leaves of control plants. The extent of disease control in all the above tests is expressed as a rating compared with either an untreated control or a diluent-sprayed-control, according to the criteria: […]

Row | Compound | Fungicidal Activity PHI (disease control rating) [2] | MIC [7] [µg/mL] | MIC [8] [µg/mL] | MIC [9] [µg/mL] | LN (disease control rating) [11] | other results
1 | Clc1nc2ncnn2c(Cl)c1-c1ccccc1OCc1ccccc1 [Example 20] | 1 (about 50-80% disease control) | – | – | – | – | Fungicidal Activity PVA (disease control rating) [1]: 2 (greater than 80% disease control)
2 | CC(C)c1ccc(-c2c(Cl)nc3ncnn3c2Cl)cc1 [Example 8] | 2 (greater than 80% disease control) | – | – | – | – | Fungicidal Activity PO (disease control rating) [3]: 1 (about 50-80% disease control); pest or weed control at 500 µg/mL [4]: 17%; pest or weed control at 500 µg/mL [5]: 33%
3 | Clc1nc2ncnn2c(Cl)c1-c1cccs1 [Example 26] | 2 (greater than 80% disease control) | 6.25 (≈ 23.1 µM) | 0.78 (≈ 2.88 µM) | 0.39 (≈ 1.44 µM) | – | Fungicidal Activity EG (disease control rating) [6]: 1 (about 50-80% disease control)
4 | Cc1ccccc1-c1c(Cl)nc2ncnn2c1Cl [Example 29] | – | 12.5 (≈ 44.8 µM) | 6.25 (≈ 22.4 µM) | 1.56 (≈ 5.59 µM) | – | PVA (disease control rating) [10]: 1 (50-80% disease control)
5 | Clc1ccc(-c2c(Cl)nc3ncnn3c2Cl)c(Cl)c1 [Example 35] | – | 6.25 (≈ 18.7 µM) | 0.39 (≈ 1.17 µM) | 0.39 (≈ 1.17 µM) | 1 (50-80% disease control) | –
6 | Clc1ccccc1-c1c(Br)nc2ncnn2c1Br [Example 2, 5,7-dibromo-6-(2-chlorophenyl)-1,2,4-triazolo[1,5a]pyrimidine] | – | – | – | – | 1 (50-80% disease control) | –
